Measured values taken from patent publication US12458677B2, “Method for preparing Gynostemma pentaphyllum leaf extract and Gynostemma pentaphyllum leaf extract prepared thereby” (BIONIC TRADING CORPORATION, priority 2022, dated 2025).

Legend:
MuRF-1 = MuRF-1 mRNA expression (RT-PCR) in TNF-α-treated L6 myotubes; assay type: cell-based; conditions: TNF-α 50 ng/ml alone, 6 hours
Procedure: (§1) L6 myoblasts (ATCC) were seeded onto a 6-well plate at 2×10^5 cell/mL and then cultured in DMEM (Hyclone) containing 10% FBS (Hyclone). When the cell density reached about 80-85%, the L6 cells were differentiated into myotubes by removing the medium from the well and replacing with DMEM (Hyclone) containing 2% HS (Hyclone). The differentiation was conducted for a total of 6 days while replacing with a fresh medium every other day. After the differentiation, the Gynostemma pentaphyllum leaf extract of Examples or Comparative Example was dissolved in DMEM containing 50 ng/mL of TNF-α to a concentration of 40 μg/mL and treated to the cells. 6 hours later, total RNAs were isolated using a TRIzol reagent (Takara, Osaka, Japan). The isolated total RNAs were quantified using NanoDrop 1000 (Thermo Fisher Scientific Inc., Waltham, MA, USA). 16 μL of the quantified RNAs were mixed with a reverse transcriptase premix (ELPIS-Biotech) and cDNAs were synthesized under the condition of 55 minutes at 42° C. and 15 minutes at 70° C. using a PCR machine (Gene Amp PCR System 2700; Applied Biosystems, Foster City, CA, USA). […]

Atrogin-1 = Atrogin-1 mRNA expression (RT-PCR) in TNF-α-treated L6 myotubes; assay type: cell-based; conditions: TNF-α 50 ng/ml alone, 6 hours
Procedure: as §1

TNF-α
MuRF-1 (% of control group) (MuRF-1): 411.5 ± 32.7 % of control group | Atrogin-1 (% of control group) (Atrogin-1): 248.5 ± 26.4 % of control group
